Measured values taken from PubChem BioAssay AID248 (DTP/NCI, 2004).
“And” between values parts separate entries of the source, which are not always exact repeats. Equal values may be shown once. Inconclusive results and toxic doses are left out. Cut-off read from the data, not from the text of the source: active = T/C of 150% or more; inactive = T/C below 125%.

System: L1210 leukemia ip in BDF1 mice, survival T/C
Experiment: NCI In Vivo Anticancer Drug Screen. Data for tumor model L1210 Leukemia (intraperitoneal) in B6D2F1 (BDF1) mice
Conditions: endpoint: mean survival time, higher = longer survival
Summary of the method: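 In this screen, tumor-bearing mice given compound are compared to those given vehicle, and their survival values are reported as a treated-to-control quotient.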

[1] = dose: 100.0 mg/kg/injection, schedule: Q04DX003 (ip), vehicle: Klucel (hydroxypropylcellulose) (HPC)
[2] = dose: 200.0 mg/kg/injection, schedule: Q01DX009 (ip), vehicle: Klucel (hydroxypropylcellulose) (HPC)
[3] = dose: 200.0 mg/kg/injection, schedule: Q04DX003 (ip), vehicle: Klucel (hydroxypropylcellulose) (HPC)
[4] = dose: 400.0 mg/kg/injection, schedule: Q01DX009 (ip), vehicle: Klucel (hydroxypropylcellulose) (HPC)
[5] = dose: 400.0 mg/kg/injection, schedule: Q04DX003 (ip), vehicle: Klucel (hydroxypropylcellulose) (HPC)
[6] = dose: 100.0 mg/kg/injection, schedule: Q01DX001 (ip), vehicle: saline
[7] = dose: 200.0 mg/kg/injection, schedule: Q01DX001 (ip), vehicle: saline
[8] = dose: 400.0 mg/kg/injection, schedule: Q01DX001 (ip), vehicle: saline
[9] = dose: 100.0 mg/kg/injection, schedule: Q04DX003 (ip), vehicle: saline with Tween-80
[10] = dose: 400.0 mg/kg/injection, schedule: Q04DX003 (ip), vehicle: saline with Tween-80
[11] = dose: 100.0 mg/kg/injection, schedule: Q01DX009 (ip), vehicle: saline sonified
[12] = dose: 200.0 mg/kg/injection, schedule: Q01DX009 (ip), vehicle: saline sonified

Measured: T/C

O=S(=O)(O)CNc1cc(Cl)cc(Cl)c1
inactive: [1] 90 % of control | [2] 93 % of control | [3] 88 % of control | [4] 91 % of control | [5] 92 % of control

NC(=O)Cc1ccccc1N
inactive: dose: 100.0 mg/kg/injection, schedule: Q01DX001 (ip), vehicle: Klucel (hydroxypropylcellulose) (HPC) 98 % of control | dose: 200.0 mg/kg/injection, schedule: Q01DX001 (ip), vehicle: Klucel (hydroxypropylcellulose) (HPC) 114 % of control | dose: 400.0 mg/kg/injection, schedule: Q01DX001 (ip), vehicle: Klucel (hydroxypropylcellulose) (HPC) 98 % of control

O=C(O)C(Br)C(Br)c1ccc([N+](=O)[O-])cc1 (centres undefined)
inactive: dose: 100.0 mg/kg/injection, schedule: Q04DX002 (ip), vehicle: gum acacia 103 % of control | dose: 200.0 mg/kg/injection, schedule: Q04DX002 (ip), vehicle: gum acacia 107 % of control | dose: 400.0 mg/kg/injection, schedule: Q04DX002 (ip), vehicle: gum acacia 90 % of control

CCOC(=O)CCCCC(N)=O
inactive: [6] 104 % of control | [7] 102 % of control | [8] 101 % of control

CC1(C)N=C(N)N=C(N)N1CCc1ccccc1
inactive: dose: 25.0 mg/kg/injection, schedule: Q01DX001 (ip), vehicle: saline with Tween-80 101 % of control | dose: 50.0 mg/kg/injection, schedule: Q01DX001 (ip), vehicle: saline with Tween-80 104 % of control

COc1ccc(CN2CCCN(Cc3ccc(OC)cc3OC)C2c2ccc(N(CCCl)CCCl)cc2C)c(OC)c1
inactive: dose: 50.0 mg/kg/injection, schedule: Q01DX001 (ip), vehicle: carboxymethylcellulose (CMC) 106 % of control | dose: 100.0 mg/kg/injection, schedule: Q01DX001 (ip), vehicle: carboxymethylcellulose (CMC) 104 % of control | dose: 200.0 mg/kg/injection, schedule: Q01DX001 (ip), vehicle: carboxymethylcellulose (CMC) 106 % of control | dose: 400.0 mg/kg/injection, schedule: Q01DX001 (ip), vehicle: carboxymethylcellulose (CMC) 112 % of control

CC(C(N)=O)N1C(=O)C2C3C=CC(C3)C2C1=O (centres undefined)
inactive: [9] 109 % of control | [10] 97 % of control

C=CCC1(OC(C)=O)CCN(C)CC1
inactive: dose: 75.0 mg/kg/injection, schedule: Q01DX001 (ip), vehicle: saline 113 % of control

C[Si](C)(C#CC1(O)CCCCC1)C(Cl)Cl
inactive: [1] 102 % of control | [3] 101 % of control | [5] 109 % of control

CCCC(CC)C(C(=O)OCC)C1=NC(C)(C)CC(C)O1 (centres undefined)
inactive: [11] 98 % of control | [12] 104 % of control | dose: 400.0 mg/kg/injection, schedule: Q01DX009 (ip), vehicle: saline sonified 93 % of control

OCCNCc1ccc2ccccc2c1
inactive: dose: 150.0 mg/kg/injection, schedule: Q01DX015 (ip), vehicle: saline 90 % of control

Nc1cccc(NC=O)c1
inactive: dose: 25.0 mg/kg/injection, schedule: Q01DX009 (ip), vehicle: saline with Tween-80 102 % of control | dose: 50.0 mg/kg/injection, schedule: Q01DX009 (ip), vehicle: saline with Tween-80 104 % of control

CC(C)(C)OC1C2C=CC1C1C2C(C)(C)C1(C)C (centres undefined)
inactive: dose: 100.0 mg/kg/injection, schedule: Q01DX001 (ip), vehicle: saline with Tween-80 90 % of control | dose: 200.0 mg/kg/injection, schedule: Q01DX001 (ip), vehicle: saline with Tween-80 90 % of control

c1ccc(-c2nc(N=C3N=c4ccccc4=N3)[nH]c2-c2ccccc2)cc1
inactive: [1] 112 % of control | [3] 100 % of control | [5] 96 % of control

O=C(OCC1OCOC(COC(=O)c2ccccc2)C(OC(=O)c2ccccc2)C1OC(=O)c1ccccc1)c1ccccc1 (centres undefined)
inactive: dose: 50.0 mg/kg/injection, schedule: Q04DX002 (ip), vehicle: saline with Tween-80 88 % of control

CCC(C)NC(=O)Oc1cccc(NC(=O)OC)c1 (centres undefined)
inactive: [9] 95 % of control | dose: 200.0 mg/kg/injection, schedule: Q04DX003 (ip), vehicle: saline with Tween-80 93 % of control | [10] 92 % of control

CN(C)/C=N/n1cnc2c(ncn2C2OC(CO)C(O)C2O)c1=O (centres undefined)
inactive: dose: 100.0 mg/kg/injection, schedule: Q01DX003 (ip), vehicle: saline 102 % of control | dose: 200.0 mg/kg/injection, schedule: Q01DX003 (ip), vehicle: saline 94 % of control

CC[C@H](CC[C@@H](C)[C@H]1CC[C@H]2[C@@H]3CC=C4C[C@@H](O)CC[C@]4(C)[C@H]3CC[C@]12C)C(C)C
inactive: dose: 12.5 mg/kg/injection, schedule: Q01DX001 (ip), vehicle: saline 93 % of control | dose: 12.5 mg/kg/injection, schedule: Q04DX003 (ip), vehicle: saline 98 % of control | dose: 25.0 mg/kg/injection, schedule: Q01DX001 (ip), vehicle: saline 94 % of control | dose: 25.0 mg/kg/injection, schedule: Q04DX003 (ip), vehicle: saline 105 % of control | dose: 50.0 mg/kg/injection, schedule: Q01DX001 (ip), vehicle: saline 88 % of control | dose: 50.0 mg/kg/injection, schedule: Q04DX003 (ip), vehicle: saline 98 % of control | dose: 75.0 mg/kg/injection, schedule: Q04DX003 (ip), vehicle: saline 89 % of control | [6] 89 % of control and 95 % of control | dose: 115.0 mg/kg/injection, schedule: Q04DX003 (ip), vehicle: saline 91 % of control | dose: 170.0 mg/kg/injection, schedule: Q04DX003 (ip), vehicle: saline 87 % of control | [7] 97 % of control | dose: 255.0 mg/kg/injection, schedule: Q04DX003 (ip), vehicle: saline with Tween-80 90 % of control | dose: 385.0 mg/kg/injection, schedule: Q04DX003 (ip), vehicle: saline with Tween-80 96 % of control | [8] 104 % of control and 107 % of control

Cc1c(C)c2c(C(=O)O)c3ccccc3nc2c2ccccc12
inactive: dose: 50.0 mg/kg/injection, schedule: Q01DX001 (ip), vehicle: alcohol 96 % of control | dose: 100.0 mg/kg/injection, schedule: Q01DX001 (ip), vehicle: alcohol 102 % of control | dose: 200.0 mg/kg/injection, schedule: Q01DX001 (ip), vehicle: alcohol 92 % of control | dose: 400.0 mg/kg/injection, schedule: Q01DX001 (ip), vehicle: alcohol 105 % of control

COc1cc2c(cc1OC)C(C(N)=O)NCC2 (centres undefined)
inactive: dose: 100.0 mg/kg/injection, schedule: Q01DX001 (ip), vehicle: other 101 % of control | dose: 200.0 mg/kg/injection, schedule: Q01DX001 (ip), vehicle: other 97 % of control | dose: 400.0 mg/kg/injection, schedule: Q01DX001 (ip), vehicle: other 93 % of control

CCOc1ccc(C2(C)OC(=O)C3CCCCC32)c2ccccc12 (centres undefined)
inactive: dose: 100.0 mg/kg/injection, schedule: Q04DX003 (ip), vehicle: gum acacia 100 % of control | dose: 200.0 mg/kg/injection, schedule: Q04DX003 (ip), vehicle: gum acacia 95 % of control | dose: 400.0 mg/kg/injection, schedule: Q04DX003 (ip), vehicle: gum acacia 90 % of control

COC(=O)CNC(=O)C1CSC(C)(C)N1C=O (centres undefined)
inactive: dose: 100.0 mg/kg/injection, schedule: Q04DX003 (ip), vehicle: saline 104 % of control | dose: 200.0 mg/kg/injection, schedule: Q04DX003 (ip), vehicle: saline 101 % of control | dose: 400.0 mg/kg/injection, schedule: Q04DX003 (ip), vehicle: saline 98 % of control

CCCCC/C(=N/N)c1ccc2cc3c(cc2c1)CCCC3
inactive: [6] 97 % of control | [7] 95 % of control | [8] 90 % of control

CCCCN(C(=O)C(F)(F)F)C(C)(C)C(SSSC(c1cccs1)C(C)(C)N(CCCC)C(=O)C(F)(F)F)c1cccs1 (centres undefined)
inactive: [11] 94 % of control | dose: 100.0 mg/kg/injection, schedule: Q04DX003 (ip), vehicle: saline sonified 90 % of control | [12] 96 % of control | dose: 200.0 mg/kg/injection, schedule: Q04DX003 (ip), vehicle: saline sonified 93 % of control | dose: 400.0 mg/kg/injection, schedule: Q04DX003 (ip), vehicle: saline sonified 90 % of control

COC(=O)C1C2CC3OC(=O)C1(C)C3C2 (centres undefined)
inactive: [6] 103 % of control | [7] 98 % of control | [8] 97 % of control

CC/C=C(/C#N)CC
inactive: dose: 100.0 mg/kg/injection, schedule: Q04DX002 (ip), vehicle: saline with Tween-80 104 % of control | dose: 200.0 mg/kg/injection, schedule: Q04DX002 (ip), vehicle: saline with Tween-80 93 % of control

CCCCCCC(=O)CCCC(C)CCCC(C)C (centres undefined)
inactive: dose: 100.0 mg/kg/injection, schedule: Q01DX009 (ip), vehicle: Klucel (hydroxypropylcellulose) (HPC) 91 % of control | [1] 93 % of control | [2] 97 % of control | [3] 95 % of control | [4] 98 % of control | [5] 88 % of control
